From patent US10722526B2, “Pharmaceutical compositions for radioprotection or radiomitigation and methods for using them” (KOREA INSTITUTE OF RADIOLOGICAL & MEDICAL SCIENCES, priority 2015, dated 2020)

Legend:
[1] = test system: Human pulmonary artery endothelial cells (HPAEC); assay: Immunofluorescence staining of irradiated HPAECs (Example 4); assay type: cell-based; settings: 10 ng/mL, 12 hours before 10 Gy radiation
Description: (§1) Human pulmonary artery endothelial cells (HPAEC) bought from Promocell were cultured in a culture chamber at a temperature of 37° C. under a 5% CO2 condition using a medium including various growth factors necessary for growth of the vascular endothelial cell.
(§2) HPAECs were plated in 3.5 cm, 6 cm, and 10 cm culture dishes and cultured in a CO2 incubator at 37° C. so that the cells were 70% to 80% confluent. 2-Methoxyestradiol was selectively pre-treated according to the test groups. 10 Gy gamma rays (^137Cs) (Atomic Energy of Canada, LTd., Canada) were radiated at a dose of 3.81 Gy/min.
HPAECs were cultured on the cover slide, selectively pre-treated with 2-methoxyestradiolin according to test groups, and irradiated. HPAECs were then fixed in 10% neutral formalin for one day, and washed with phosphate buffered saline (PBS) before staining. After blocking with 2% bovine serum albumin (dissolved inPBS) before the first antibody reaction, VE-cadherin, hypoxia-inducible factor 1-alpha (HIF-1α), SMAD, p-SMAD2/3, and α-SMA antibodies, diluted at 1:100, were reacted at 4° C. for 16 hours. After washing with PBS, the second antibodies having fluorescent stains attached were diluted at 1:500 and reacted at 25° C. for 1 hour. The nuclei were stained with a fluorescent stain 4′,6-diamidino-2-phenylindole (DAPI). After washing with PBS, a drop of glycerol was applied to attach the stained cells to the glass slide.
Human pulmonary artery endothelial cells which received 10 Gy radiation were fixed in 10% neutral formalin, and reacted with phalloidin, CA-9, and VE-cadherin antibodies. Then, fluorescent-labeled secondary immunoglobulins were used to stain CA9, phalloidin, and VE-cadherin in red, green, and white, respectively. The cell nuclei were stained in blue using DAPI. The group received 10 Gy radiation 12 hours after treating HPAECs with 10 ng/mL 2-methoxyestradiol.

[2] = test system: skin tissue, C57BL/6 mouse, 20 Gy on the thorax; assay: Radiation-induced in vivo skin damage, infiltration of inflammatory cells (Example 3); settings: 2 weeks after irradiation, compared to IR
Description: (§3) Tissue from a mouse was fixed in 10% neutral formalin for one day, and paraffin sections were prepared. The paraffin sections were then reacted for 5 minutes in each of xylene, and 95%, 90%, and 70% ethanol solutions in that order to deparaffinize the paraffin around the tissue. The tissue was then put into hematoxylin for 1 minute to stain the nucleus and washed with running water for 10 minutes, followed by dipping in eosin for 30 seconds to stain the cytoplasm. The tissue was then dipped in 50%, 70%, 90%, and 95% ethanol, and xylene in that order, and a drop of a mounting solution was applied thereto. The tissue was covered with a cover slide and observed with a microscope (Carl Zeiss Vision).
To observe whether inflammatory responses and fibrosis of skin occur during tissue damage induced after radiotherapy, a C57BL/6 mouse was exposed to 20 Gy radiation on the thorax in a size of 7 mm. Skin was extracted from the mouse, and infiltration of inflammatory cells in the skin tissue was observed. The group pre-treated with 2-methoxyestradiol (IR+pre-treatment2Me) received an intraperitoneal injection in an amount of 60 mg/kg 1 hour before the irradiation, and that post-treated with 2-methoxyestradiol (IR+post-treatment2Me) received an intraperitoneal injection in an amount of 60 mg/kg 24 hours after the irradiation.

[3] = test system: p-SMAD, Smad 2/3, α-SMA in HPAECs; assay: Western blot of fibrosis-related proteins in irradiated HPAECs (Example 6); assay type: cell-based, human; settings: 12 hours before 10 Gy radiation
Description: as §1, §2
After the cultured cells were irradiated, specimens in which the cells were dissolved in a solution of 150 mM sodium chloride, 40 mM Tris-Cl (pH 8.0), 0.1% NP-40 were prepared to observe intracellular proteins. Sodium dodecyl sulfate polyacrylamide gel electrophoresis (SDS-PAGE) was performed on the specimens, followed by Western blot analysis. The proteins separated by electrophoresis were transferred to a nitrocellulose membrane, and the amount of protein expression was analyzed using the immunoblotting method.
In order to observe changes in the expression amount of the proteins related to HPAEC pulmonary fibrosis according to the concentrations of 2-methoxyestradiol (0.5 μM and 1 μM), the cultured HPAECs were pre-treated with 0.5 μM or 1 μM 2-methoxyestradiol and received 10 Gy radiation 12 hours later. Western blot analysis was then performed using p-SMAD, Smad 2/3, and alpha smooth muscle actin (α-SMA) antibodies. To measure a quantitative amount of the protein, Western blot was performed using β-actin antibodies.

[4] = test system: pulmonary artery endothelium, mouse model with lung cancer (mutated p53 and ras), 16 Gy; assay: Fibrosis of vascular endothelium after irradiation in mouse model with lung cancer (Example 7); assay type: in vivo; settings: 150 mg/kg i.p. 1 hour before 16 Gy irradiation, compared to IR
Description: as §3, with “solutions in order to” for “solutions in that order to”, “around the tissue for staining. The tissue” for “around the tissue. The tissue”
(§4) Tissue from a mouse was fixed in 10% neutral formalin for one day, and paraffin sections were prepared. The paraffin sections were then reacted for 5 minutes in each of xylene, and 95%, 90%, and 70% ethanol solutions in that order to deparaffinize the paraffin around the tissue for staining. For antigen activation, the tissue was soaked in a 0.1 M citric acid solution (pH 6.0) and boiled.
The tissue was then reacted in Bouin's solution for 1 minute, Weigert's hematoxylin for 10 minutes, phosphotunstic/phosphomolydic acid for 10 minutes, aniline blue for 5 minutes, and 1% acetate for 1 minute in that order. […]

[5] = test system: blood vessels of the skin, C57BL/6 mouse, 20 Gy on the thorax; assay: Radiation-induced in vivo vascular injury of skin (Example 2); settings: compared to untreated group (IR)
Description: Tissue from a mouse was fixed in 10% neutral formalin for one day, and paraffin sections were prepared. The paraffin sections were then reacted for 5 minutes in each of xylene, and 95%, 90%, and 70% ethanol solutions in that order to deparaffinize the paraffin around the tissue. For antigen activation, the tissue was immersed in 0.1 M citrate (pH 6.0) and brought to a boil for 30 minutes, followed by reacting with 3% hydrogen peroxide for 15 minutes. Meanwhile, the tissue was then reacted in phosphate based saline buffer (PBS, 0.1% triton x-100 included) including CD31 (abcam, 1:100 dilution) at 4° C. for 16 hours. After washing with PBS, secondary antibodies having biotin conjugated were diluted at 1:200 and incubated at room temperature for 30 minutes. Avidin biotin complex (ABC) was applied and incubated at room temperature for 30 minutes, and 3,3′-DAB(3,3′-diaminobenzidine) was added for color detection. Hematoxylin was used for counterstaining. The tissue was then dipped in 50%, 70%, 90%, and 95% ethanol, and xylene in that order, and a drop of a mounting solution was applied thereto. The tissue was covered with a cover slide and observed with a microscope (Carl Zeiss Vision).
Skin was extracted from the mouse, and vascular changes inside the skin were observed. […]

[6] = test system: pulmonary artery endothelium, C57BL/6 mouse, 16 Gy on the lung; assay: Radiation-induced pulmonary fibrosis in mouse, trichrome staining of collagen (Example 5); assay type: in vivo; settings: 150 mg/kg i.p. 1 hour before 16 Gy irradiation of the lung; compared to IR; **: P<0.01
Description: as §4
The tissue was then reacted in Bouin's solution for 1 minute, Weigert's hematoxylin for 10 minutes, phosphotunstic/phosphomolydic acid for 10 minutes, aniline blue for 5 minutes, and 1% acetate for 1 minute in that order. After dehydration, the tissue was sealed with a cover glass, and observed with a confocal microscope.
To observe whether the symptoms of pulmonary fibrosis induced after radiotherapy include pulmonary fibrosis of vascular endothelial cells, a C57BL/6 mouse was exposed to 16 Gy radiation on the lung. The lung was extracted from the mouse, and collagen, a protein appearing on the cross-section of aorta during the fibrosis of pulmonary artery endothelial cell, was detected by trichrome staining. The group treated with 2-methoxyestradiol was intraperitoneally injected in an amount of 150 mg/kg 1 hour before irradiation. […]

[7] = test system: lung of a mouse model, 90 Gy irradiation; assay: Radiation-induced lung tissue damage, H&E staining (Example 1); assay type: in vivo; settings: 60 mg/kg i.p. 1 hour before 90 Gy irradiation; 2 weeks after irradiation; compared to untreated group (IR)
Description: as §3
A mouse was exposed to 90 Gy radiation on the thorax in a size of 3 mm. Lung tissue from the mouse model was fixed in 10% neutral formalin, and paraffin sections were prepared. Using the hematoxylin and eosin staining method, inflammatory reactions and fibrosis of the tissue were observed. The cell nuclei were stained in blue and the cytoplasm was stained in pink. One hour before the irradiation, the mouse model received an intraperitoneal injection of 60 mg/kg 2-methoxyestradiol. Two weeks after the irradiation, inflammatory reactions and fibrosis were observed using H&E staining at the site of tissue damage.

[8] = post-treated: 60 mg/kg i.p. 24 hours after 20 Gy irradiation
[9] = pre-treated: 60 mg/kg i.p. 1 hour before 20 Gy irradiation
[10] = 1 μM, decrease in particular at 1 μM

For COc1cc2c(cc1O)CC[C@@H]1[C@@H]2CC[C@]2(C)[C@@H](O)CC[C@@H]12 [2-methoxyestradiol], the “CA-9 staining, immunofluorescence” value [1] was “significant decrease”, the “VE-cadherin (white around the cell membrane), immunofluorescence” value [1] was “significant increase” and the “phalloidin staining, immunofluorescence” value [1] was “significant decrease”. For the same molecule, the “number of infiltrated inflammatory cells inside the skin tissue” value [2, 8] was “significantly reduced”, the “number of infiltrated inflammatory cells inside the skin tissue” value [2, 9] was “significantly reduced” and the “Smad 2/3 expression, Western blot” value ([3]; 0.5 μM) was “relative decrease”. For the same molecule, the “p-SMAD expression, Western blot” value ([3]; 0.5 μM) was “relative decrease”, the “α-SMA expression, Western blot” value ([3]; 0.5 μM) was “relative decrease” and the “Smad 2/3 expression, Western blot” value [3, 10] was “relative decrease”. The “p-SMAD expression, Western blot” value [3, 10] was “relative decrease”, the “α-SMA expression, Western blot” value [3, 10] was “relative decrease” and the “collagen stained in blue around the vascular endothelium, trichrome staining” value [4] was “significant decrease”. The skin vascular injury [5, 8] was “significant reduction”, the skin vascular injury [5, 9] was “significant reduction” and the “collagen stained in blue in the aortic wall, trichrome staining” value [6] was “significant decrease”. For the same molecule, the “cell infiltration (inflammatory cells) in lung tissue, H&E staining” value [7] was “significantly reduced” and the “fibrosis around blood vessels in lung tissue, H&E staining” value [7] was “significantly reduced”.
